Organism: Rattus norvegicus
Assay: Open TG-GATES - Regimen: Daily Repeat
Format: toxicity, organism-based, Sprague-Dawley
Design: regimen Daily Repeat, gender Male, age 6 weeks
Conditions: in vivo, po, route gavage; for Bas / Eos / Fbg / Hb / Ht / Lym / MCV / Mono / Neu / PT / Plat / RBC / Ret / WBC / APTT / MCH / MCHC: tissue Blood; for KIDNEY_L / KIDNEY_R / KIDNEY_TOTAL: tissue Kidney; for LIVER: tissue Liver; for ALP / ALT / AST / BUN / CRE / DBIL / GLC / IP / K / LDH / Na / PL / RALB / TBIL / TC / TG / TP / gamma-GTP / Ca: tissue Plasma
[1] = 300 mg/kg, 72 h, dose level Middle, time 3 day
[2] = 300 mg/kg, […], dose level Middle, time 7 day
[3] = 300 mg/kg, […], dose level Middle, time 14 day
[4] = 300 mg/kg, […], dose level Middle, time 28 day
[5] = 1000 mg/kg, 72 h, dose level High, time 3 day
[6] = 1000 mg/kg, […], dose level High, time 7 day
[7] = 1000 mg/kg, […], dose level High, time 14 day
[8] = 1000 mg/kg, […], dose level High, time 28 day

O=C(O)c1cn(C2CC2)c2cc(N3CCNCC3)c(F)cc2c1=O [CIPROFLOXACIN]
Bas [1]: 0% | Eos [1]: 1% | Fbg [1]: 217 mg/dL | Hb [1]: 13 g/dL | Ht [1]: 38.7% | Lym [1]: 78.4% | MCV [1]: 63.5 fL | Mono [1]: 6% | Neu [1]: 14.4% | PT [1]: 12.4 s | Plat [1]: 103.1 x10_4/uL | RBC [1]: 609 x10_4/ul | Ret [1]: 6.9% | WBC [1]: 87 x10_2/uL | KIDNEY_L [1]: 0.9 g | KIDNEY_R [1]: 0.9 g | KIDNEY_TOTAL [1]: 1.8 g | LIVER [1]: 8.6 g | ALP [1]: 998 IU/L | ALT [1]: 37.8 IU/L | AST [1]: 68.4 IU/L | BUN [1]: 16.4 mg/dL | CRE [1]: 0.5 mg/dL | DBIL [1]: 0.014 mg/dL | GLC [1]: 182 mg/dL | IP [1]: 9.1 mg/dL | K [1]: 5 meq/L | LDH [1]: 81 IU/L | Na [1]: 140.4 meq/L | PL [1]: 148.8 mg/dL | RALB [1]: 3.8 g/dL | TBIL [1]: 0.3 mg/dL | TC [1]: 91 mg/dL | TG [1]: 49.4 mg/dL | TP [1]: 5.8 g/dL | gamma-GTP [1]: 2.2 IU/L | TERMINAL_BW [2]: 237.8 g | TERMINAL_BW [3]: 282.8 g | TERMINAL_BW [4]: 378.4 g | APTT [2]: 16 s | Bas [2]: 0% | Eos [2]: 0.6% | Fbg [2]: 218.5 mg/dL | Hb [2]: 13.2 g/dL | Ht [2]: 39.7% | Lym [2]: 80.4% | MCH [2]: 21.4 pg | MCHC [2]: 33.4% | MCV [2]: 64 fL | Mono [2]: 4.8% | Neu [2]: 14% | PT [2]: 12.4 s | Plat [2]: 98.1 x10_4/uL | RBC [2]: 620.2 x10_4/ul | Ret [2]: 6.7% | WBC [2]: 128.7 x10_2/uL | APTT [3]: 16.4 s | Bas [3]: 0% | Eos [3]: 1% | Fbg [3]: 251 mg/dL | Hb [3]: 13.9 g/dL | Ht [3]: 41.6% | Lym [3]: 83.4% | MCH [3]: 20.4 pg | MCHC [3]: 33.4% | MCV [3]: 61.2 fL | Mono [3]: 5% | Neu [3]: 10.6% | PT [3]: 10 s | Plat [3]: 117.4 x10_4/uL | RBC [3]: 680.8 x10_4/ul | Ret [3]: 6.4% | WBC [3]: 162 x10_2/uL | APTT [4]: 16.7 s | Bas [4]: 0% | Eos [4]: 0.8% | Fbg [4]: 245.2 mg/dL | Ht [4]: 44% | Lym [4]: 83.2% | MCH [4]: 19.3 pg | MCHC [4]: 33.2% | MCV [4]: 58.1 fL | Mono [4]: 5% | Neu [4]: 10.8% | Plat [4]: 100 x10_4/uL | RBC [4]: 756.8 x10_4/ul | Ret [4]: 3.2% | WBC [4]: 123.6 x10_2/uL | KIDNEY_L [2]: 1 g | KIDNEY_R [2]: 1 g | KIDNEY_TOTAL [2]: 2.1 g | KIDNEY_L [3]: 1.1 g | KIDNEY_R [3]: 1.1 g | KIDNEY_TOTAL [3]: 2.3 g | KIDNEY_L [4]: 1.3 g | KIDNEY_R [4]: 1.3 g | KIDNEY_TOTAL [4]: 2.6 g | LIVER [2]: 10.8 g | LIVER [3]: 12.3 g | LIVER [4]: 16 g | ALP [2]: 917.6 IU/L | AST [2]: 66.4 IU/L | BUN [2]: 20 mg/dL | CRE [2]: 0.5 mg/dL | Ca [2]: 11.4 mg/dL | DBIL [2]: 0.004 mg/dL | GLC [2]: 173.8 mg/dL | IP [2]: 9 mg/dL | K [2]: 4.9 meq/L | LDH [2]: 65.2 IU/L | Na [2]: 141.6 meq/L | PL [2]: 160.8 mg/dL | RALB [2]: 4 g/dL | TBIL [2]: 0.3 mg/dL | TC [2]: 90 mg/dL | TG [2]: 86.6 mg/dL | TP [2]: 5.8 g/dL | gamma-GTP [2]: 1.2 IU/L | ALP [3]: 973.2 IU/L | ALT [3]: 31.6 IU/L | AST [3]: 59.2 IU/L | BUN [3]: 20.4 mg/dL | CRE [3]: 0.6 mg/dL | Ca [3]: 11 mg/dL | DBIL [3]: 0.008 mg/dL | GLC [3]: 184.8 mg/dL | IP [3]: 7.8 mg/dL | K [3]: 4.8 meq/L | LDH [3]: 83.4 IU/L | Na [3]: 139 meq/L | PL [3]: 160 mg/dL | RALB [3]: 4 g/dL | TBIL [3]: 0.3 mg/dL | TG [3]: 105.8 mg/dL | TP [3]: 6 g/dL | gamma-GTP [3]: 2.8 IU/L | ALP [4]: 655 IU/L | ALT [4]: 33.8 IU/L | AST [4]: 59.4 IU/L | BUN [4]: 19.8 mg/dL | CRE [4]: 0.4 mg/dL | DBIL [4]: 0.004 mg/dL | GLC [4]: 180.8 mg/dL | IP [4]: 7.7 mg/dL | K [4]: 4.4 meq/L | LDH [4]: 102.2 IU/L | Na [4]: 140.6 meq/L | PL [4]: 172 mg/dL | RALB [4]: 4.1 g/dL | TBIL [4]: 0.3 mg/dL | TC [4]: 82.6 mg/dL | TG [4]: 184.6 mg/dL | TP [4]: 6.6 g/dL | gamma-GTP [4]: 1 IU/L | TERMINAL_BW [5]: 203.7 g | APTT [5]: 18.7 s | Bas [5]: 0% | Eos [5]: 1% | Fbg [5]: 222 mg/dL | Hb [5]: 12.8 g/dL | Ht [5]: 38.4% | Lym [5]: 83.2% | MCH [5]: 21.2 pg | MCHC [5]: 33.4% | Mono [5]: 6% | Neu [5]: 10% | PT [5]: 12.3 s | Plat [5]: 101.1 x10_4/uL | RBC [5]: 603.4 x10_4/ul | Ret [5]: 6% | WBC [5]: 121.3 x10_2/uL | KIDNEY_L [5]: 0.9 g | KIDNEY_R [5]: 1 g | KIDNEY_TOTAL [5]: 1.9 g | LIVER [5]: 9.6 g | ALP [5]: 962.6 IU/L | ALT [5]: 39 IU/L | AST [5]: 65.2 IU/L | BUN [5]: 16.8 mg/dL | CRE [5]: 0.5 mg/dL | Ca [5]: 11.2 mg/dL | DBIL [5]: 0.004 mg/dL | GLC [5]: 183.2 mg/dL | IP [5]: 9.4 mg/dL | K [5]: 4.9 meq/L | LDH [5]: 143.2 IU/L | Na [5]: 140.6 meq/L | PL [5]: 139.2 mg/dL | RALB [5]: 3.8 g/dL | TBIL [5]: 0.2 mg/dL | TC [5]: 86 mg/dL | TP [5]: 5.7 g/dL | gamma-GTP [5]: 1.4 IU/L | TERMINAL_BW [6]: 228.1 g | TERMINAL_BW [7]: 267.6 g | TERMINAL_BW [8]: 381.8 g | APTT [6]: 16 s | Bas [6]: 0% | Eos [6]: 0.8% | Fbg [6]: 231.8 mg/dL | Hb [6]: 13.5 g/dL | Ht [6]: 40.4% | Lym [6]: 81.2% | MCH [6]: 21.1 pg | MCHC [6]: 33.5% | MCV [6]: 63 fL | Mono [6]: 5.4% | Neu [6]: 12.8% | Plat [6]: 106.3 x10_4/uL | RBC [6]: 640.8 x10_4/ul | Ret [6]: 6.4% | WBC [6]: 154.8 x10_2/uL | APTT [7]: 16.2 s | Bas [7]: 0% | Eos [7]: 0.8% | Fbg [7]: 255.2 mg/dL | Hb [7]: 14.3 g/dL | Ht [7]: 43% | Lym [7]: 82.8% | MCH [7]: 20.4 pg | MCHC [7]: 33.2% | MCV [7]: 61.6 fL | Mono [7]: 4.4% | Neu [7]: 12.4% | PT [7]: 10.2 s | Plat [7]: 97.3 x10_4/uL | RBC [7]: 699.2 x10_4/ul | Ret [7]: 5.7% | WBC [7]: 139.4 x10_2/uL | Bas [8]: 0% | Eos [8]: 1% | Fbg [8]: 248 mg/dL | Hb [8]: 14.7 g/dL | Lym [8]: 85% | MCH [8]: 19.5 pg | MCHC [8]: 33.5% | MCV [8]: 58.2 fL | Mono [8]: 3.4% | Neu [8]: 10.8% | Plat [8]: 110.7 x10_4/uL | RBC [8]: 757.8 x10_4/ul | Ret [8]: 3.5% | WBC [8]: 156.8 x10_2/uL | KIDNEY_L [6]: 1 g | KIDNEY_R [6]: 1 g | KIDNEY_TOTAL [6]: 2 g | KIDNEY_L [7]: 1.1 g | KIDNEY_R [7]: 1.1 g | KIDNEY_TOTAL [7]: 2.2 g | KIDNEY_L [8]: 1.4 g | KIDNEY_R [8]: 1.4 g | KIDNEY_TOTAL [8]: 2.8 g | LIVER [6]: 10.5 g | LIVER [7]: 11 g | LIVER [8]: 15 g | ALP [6]: 850.4 IU/L | AST [6]: 64 IU/L | BUN [6]: 21.2 mg/dL | CRE [6]: 0.5 mg/dL | Ca [6]: 11.5 mg/dL | DBIL [6]: 0 mg/dL | GLC [6]: 182.4 mg/dL | IP [6]: 9.6 mg/dL | K [6]: 5.1 meq/L | LDH [6]: 96.8 IU/L | Na [6]: 141 meq/L | PL [6]: 158.8 mg/dL | RALB [6]: 3.8 g/dL | TBIL [6]: 0.2 mg/dL | TC [6]: 86 mg/dL | TG [6]: 90.2 mg/dL | TP [6]: 5.8 g/dL | gamma-GTP [6]: 1.6 IU/L | ALP [7]: 871.8 IU/L | AST [7]: 61.4 IU/L | BUN [7]: 22.8 mg/dL | CRE [7]: 0.6 mg/dL | DBIL [7]: 0.03 mg/dL | GLC [7]: 182.6 mg/dL | IP [7]: 7.8 mg/dL | K [7]: 4.8 meq/L | LDH [7]: 171.8 IU/L | Na [7]: 139.2 meq/L | PL [7]: 169 mg/dL | RALB [7]: 4 g/dL | TBIL [7]: 0.2 mg/dL | TC [7]: 92 mg/dL | TP [7]: 6.1 g/dL | gamma-GTP [7]: 1.8 IU/L | ALP [8]: 690 IU/L | ALT [8]: 32.4 IU/L | AST [8]: 51.8 IU/L | BUN [8]: 19.4 mg/dL | CRE [8]: 0.4 mg/dL | Ca [8]: 11.2 mg/dL | DBIL [8]: 0.022 mg/dL | GLC [8]: 180.6 mg/dL | IP [8]: 7.5 mg/dL | K [8]: 4.4 meq/L | LDH [8]: 160.6 IU/L | Na [8]: 140.2 meq/L | PL [8]: 173 mg/dL | RALB [8]: 4.1 g/dL | TBIL [8]: 0.2 mg/dL | TC [8]: 96 mg/dL | TG [8]: 102 mg/dL | TP [8]: 6.6 g/dL | gamma-GTP [8]: 2.4 IU/L
